Measured values as given in US11466016B2, “Pharmaceutical compounds” (priority 2018, dated 2022).

These compounds were tested against SHP2 (Homo sapiens (Human), UniProt Q06124) (assay: SHP2 Biochemical Assay (DiFMUP conversion, pIRS1 activating peptide)). Conditions: not given.
Method: SHP2 activity was monitored by measuring the conversion of the surrogate substrate 6,8-difluoromethylumbelliferyl phosphate (DiFMUP) to the fluorescent product, 6,8-difluoromethylumbelliferone (DiFMU).
SHP2 was pre-incubated with test compounds and the activating peptide pIRS1 (H2N-LN(pY)IDLDLV-(PEG)8-LST(pY)ASINFQK-amide) for 30 min, prior to addition of the […] (DiFMUP), (Thermo Fisher D6567). […] Rates of reaction were then measured over 30 min by monitoring fluorescence on a BMG Pherastar reader at excitation 360 nm/emission 450 nm. IC50 values were calculated from the normalized dose-response plots using four parameter logistic curve fit.

Compound	IC50
Cn1cc2c(Cl)c(-c3c[nH]c4nc(N5[C@@H]6CC[C@H]5[C@H](F)[C@H](N)C6)cnc34)ccc2n1 (racemic) [Example 12, rac-(1S,2R,3R,5R)-8-[7-(4-chloro-2-methyl-2H-indazol-5-yl)-5H-pyrrolo[2,3-b]pyrazin-3-yl]-2-fluoro-8-azabicyclo[3.2.1]octan-3-amine]	0.015 µM
Cn1cc2c(Cl)c(-c3n[nH]c4nc(N5[C@H]6CC[C@@H]5[C@@H](F)[C@@H](N)C6)c(CO)nc34)ccc2n1 (racemic) [Example 78, rac-{6-[(1R,2S,3S,5S)-3-amino-2-fluoro-8-azabicyclo[3.2.1]octan-8-yl]-3-(4-chloro-2-methyl-2H-indazol-5-yl)-1H-pyrazolo[3,4-b]pyrazin-5-yl}methanol]	0.015 µM

Same assay, conditions: DiFMUP substrate, 0.25 μM pIRS1 peptide, 30 min pre-incubation; average where more than one data point; read-out: SHP2 (IC50)

Compound	IC50
2-(5-{3-[endo-3-amino-8-azabicyclo[3.2.1]octan-8-yl]-5H-pyrrolo[2,3-b]pyrazin-7-yl}-3,4-dichloro-2H-indazol-2-yl)ethan-1-ol [Example 36]	0.006 µM
CN(C)c1nc2ccc(-c3n[nH]c4nc(N5C6CCC5[C@@H](F)[C@@H](N)C6)c(CO)nc34)c(Cl)c2s1 (stereo in doubt) [Example 123, {6-[(1S,2S,3S,5R)-3-amino-2-fluoro-8-azabicyclo[3.2.1]octan-8-yl]-3-[7-chloro-2-(dimethylamino)-1,3-benzothiazol-6-yl]-1H-pyrazolo[3,4-b]pyrazin-5-yl}methanol]	0.0097 µM
Cc1nc2ccc(-c3n[nH]c4nc(N5C6CCC5[C@@H](F)[C@@H](N)C6)c(C)nc34)c(Cl)c2s1 (stereo in doubt) [Example 146, (1S,2S,3S,5R)-8-[3-(7-chloro-2-methyl-1,3-benzothiazol-6-yl)-5-methyl-1H-pyrazolo[3,4-b]pyrazin-6-yl]-2-fluoro-8-azabicyclo[3.2.1]octan-3-amine]	0.0074 µM
Cn1cc2c(Cl)c(-c3c[nH]c4nc(N5[C@@H]6CC[C@H]5C[C@H](CN)C6)cnc34)ccc2n1 [Example 1, 1-[exo-8-[7-(4-chloro-2-methyl-2-indazol-5-yl)-5H-pyrrolo[2,3-b]pyrazin-3-yl]-8-azabicyclo[3.2.1]octan-3-yl]methanamine]	0.013 µM
Cn1cc2c(Cl)c(-c3c[nH]c4nc(N5[C@@H]6CC[C@H]5C[C@H](N)C6)cnc34)ccc2n1 [Example 2, exo-8-[7-(4-chloro-2-methyl-2H-indazol-5-yl)-5H-pyrrolo[2,3-b]pyrazin-3-yl]-8-azabicyclo[3.2.1]octan-3-amine]	0.0081 µM
Cn1cc2c(Cl)c(-c3c[nH]c4nc(N5[C@@H]6CC[C@H]5C[C@@H](N)C6)cnc34)ccc2n1 [Example 3, endo-8-[7-(4-chloro-2-methyl-2H-indazol-5-yl)-5H-pyrrolo[2,3-b]pyrazin-3-yl]-8-azabicyclo[3.2.1]octan-3-amine]	0.01 µM
Cn1cc2c(Cl)c(-c3c[nH]c4nc(N5CCC(N)CC5)cnc34)ccc2n1 [Example 4, 1-[7-(4-chloro-2-methyl-2H-indazol-5-yl)-5H-pyrrolo[2,3-b]pyrazin-3-yl]piperidin-4-amine]	0.016 µM
Cn1cc2c(Cl)c(-c3c[nH]c4nc(N5CCC(C)(N)CC5)cnc34)ccc2n1 [Example 5, 1-[7-(4-chloro-2-methyl-2H-indazol-5-yl)-5H-pyrrolo[2,3-b]pyrazin-3-yl]-4-methylpiperidin-4-amine]	0.018 µM
Cn1cc2c(Cl)c(-c3c[nH]c4nc(N5[C@@H]6CCC[C@H]5C[C@@H](N)C6)cnc34)ccc2n1 [Example 6, endo-9-[7-(4-chloro-2-methyl-2H-indazol-5-yl)-5H-pyrrolo[2,3-b]pyrazin-3-yl]-9-azabicyclo[3.3.1]nonan-3-amine]	0.009 µM
Cn1cc2c(Cl)c(-c3c[nH]c4nc(N5CCC(N)(CO)CC5)cnc34)ccc2n1 [Example 7, {4-amino-1-[7-(4-chloro-2-methyl-2H-indazol-5-yl)-5H-pyrrolo[2,3-6]pyrazin-3-yl]piperidin-4-yl}methanol]	0.023 µM
